Structures can show the parent of a compound that is named as a salt.
target: T1, rat α2B (RNG gene) receptor (Rattus norvegicus, UniProt P19328); experiment: RSAT (Receptor Selection and Amplification Technology) assay, alpha 2B; type: cell-based; details: ratio of maximal effect to that of standard full agonist oxymetazoline
T1 construct: expressed in transfected cells; host or cells: NIH-3T3 cells, calcium phosphate cotransfection
T1 sequence (P19328 1-453): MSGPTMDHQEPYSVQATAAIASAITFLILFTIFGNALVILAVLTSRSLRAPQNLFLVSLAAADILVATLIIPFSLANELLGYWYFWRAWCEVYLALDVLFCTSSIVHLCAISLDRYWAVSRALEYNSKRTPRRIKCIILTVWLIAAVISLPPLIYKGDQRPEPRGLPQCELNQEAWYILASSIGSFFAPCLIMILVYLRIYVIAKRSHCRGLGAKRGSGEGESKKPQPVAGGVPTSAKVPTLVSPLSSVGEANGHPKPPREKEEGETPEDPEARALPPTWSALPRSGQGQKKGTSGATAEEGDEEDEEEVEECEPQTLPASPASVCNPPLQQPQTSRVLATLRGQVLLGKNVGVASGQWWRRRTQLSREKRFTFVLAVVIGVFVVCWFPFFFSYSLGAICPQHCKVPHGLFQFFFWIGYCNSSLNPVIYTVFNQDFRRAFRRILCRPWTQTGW
Excerpt: This preferential activity can be determined in a variety of functional assays such as Cyclic AMP Production, Shimizu et al, J. Neurochem. […] In the study below, the RSAT assay on cells that have been transiently transfected with the human α2A (c10 gene), rat α2B (RNG gene) and human α2C (c4 gene) receptors was used.
The assay measures a receptor-mediated loss of contact inhibition that results in selective proliferation of receptor-containing cells in a mixed population of confluent cells. The increase in cell number is assessed with an appropriate transfected marker gene such as b-galactosidase, the activity of which can be easily measured in a 96-well format. Receptors that activate the G protein, Gq, elicit this response. Alpha2 receptors, which normally couple to Gi, activate the RSAT response when coexpressed with a hybrid Gq protein that has a Gi receptor recognition domain, called Gq/i5^2.
NIH-3T3 cells are plated at a density of 2×10^6 cells in 15 cm dishes and maintained in Dulbecco's modified Eagle's medium supplemented with 10% calf serum. One day later, cells are cotransfected by calcium phosphate precipitation with mammalian expression plasmids encoding p-SV-b-galactosidase (5-10 mg), receptor (1-2 mg) and G protein (1-2 mg). 40 mg salmon sperm DNA may also be included in the transfection mixture. Fresh media is added on the following day and 1-2 days later, cells are harvested and frozen in 50 assay aliquots. Cells are thawed and 100 ml added to […] aliquots of various concentrations of drugs in triplicate in 96-well dishes. Incubations continue 72-96 hr at 37°. After washing with phosphate-buffered saline, b-galactosidase enzyme activity is determined by adding 200 ml of the chromogenic substrate (consisting of 3.5 mM o-nitrophenyl-b-D-galactopyranoside and 0.5% nonidet P-40 in phosphate buffered saline), incubating overnight at 30° and measuring optical density at 420 nm. The absorbence is a measure of enzyme activity, which depends on cell number and reflects a receptor-mediated cell proliferation. The EC50 and maximal effect of each drug at each alpha2 receptor is determined. The efficacy or intrinsic activity is calculated as a ratio of the maximal effect of the drug to the maximal effect of a standard full agonist for each receptor subtype.

Compound | Intrinsic Activity Relative to Oxymetazoline, Alpha 2B
C=CC1=CCC(Cc2c[nH]cn2)CC1 (stereo not drawn) [Example 1-A] | 0.7
c1ccc2c(c1)SCCC2Cc1cnc[nH]1 (stereo not drawn) [Example 1-B] | 0.7
c1ccc2c(c1)OCCC2Cc1cnc[nH]1 (stereo not drawn) [Example 1C] | 0.8
CCC1=C(C)CCC(Cc2c[nH]cn2)C1 (stereo not drawn) [Example 1D] | 0.6
COCC1=CCCC(Cc2c[nH]cn2)C1 (stereo not drawn) [Example 1E] | 1
C1=C(Cc2c[nH]cn2)CSc2ccccc21 [Example 1F] | 0.8
CC1=C(Cc2c[nH]cn2)COc2ccccc21 [Example 1G] | 0.6
c1ccc2c(c1)CCCC2Cc1c[nH]cn1 (stereo not drawn) [Example 1H] | 0.6
CC1=CCCCC1Cc1cnc[nH]1 (stereo not drawn) [Example 1I] | 0.8
C1=C(Cc2c[nH]cn2)COc2ccccc21 [Example 1J] | 0.5
C#CC1=CCC(Cc2c[nH]cn2)CC1 (stereo not drawn) [Example 1K] | 0.6
C1=C(C2CC2)CCCC1Cc1c[nH]cn1 (stereo not drawn) [Example 1L] | 0.7
CC1=CCCCC1Cc1c[nH]cn1 (stereo not drawn) [Example 1M] | 0.6
CCC1=CCCCC1Cc1c[nH]cn1 (stereo not drawn) [Example 1N] | 0.7
C#CC1=CC(Cc2c[nH]cn2)CCC1 (stereo not drawn) [Example 1O] | 0.8
CCC1=CC(Cc2c[nH]cn2)CCC1 (stereo not drawn) [Example 1P] | 0.7
CCC1=CC(Cc2c[nH]cn2)CC1 (stereo not drawn) [Example 1Q] | 0.75
COc1ccc2c(c1)CC(Cc1c[nH]cn1)CC2.Cl (stereo not drawn) [Example B-1, 4(5)-(7-methoxy-1,2,3,4-tetrahydronaphthalen-2-ylmethyl)-1H-imidazole, hydrogen chloride salt] | 0.45
COc1ccc2c(c1)C(=O)C(Cc1c[nH]cn1)CC2 (stereo not drawn) [Example B-1a, 2-(1H-imidazol-4(5)-ylmethyl)-7-methoxy-3,4-dihydro-2H-naphthalen-1-one] | 0.6
O=C1/C(=C/c2c[nH]cn2)COc2ccccc21 [Example B-2a, 3-(1H-imidazol-4(5)-ylmethylene)chroman-4-one] | 0.63
OC1c2ccccc2OCC1Cc1c[nH]cn1 (stereo not drawn) [Example B-2c, 3-(1H-imidazol-4(5)-ylmethyl)chroman-4-ol] | 0.65
O=C1c2ccccc2CCC1Cc1c[nH]cn1 (stereo not drawn) [Example B-3a] | 0.8
CC1CC(Cc2c[nH]cn2)Cc2ccccc21 (stereo not drawn) [Example B-4a, 4(5)-(4-methyl-1,2,3,4-tetrahydronaphthalen-2-ylmethyl)-1H-imidazole] | 0.75
CC1CC(Cc2c[nH]cn2)C(=O)c2ccccc21 (stereo not drawn) [Example B-4b, 2-(1H-imidazol-4(5)-ylmethyl)-4-methyl-3,4-dihydro-2H-naphthalen-1-one] | 0.7

Compound | Intrinsic Activity Relative to Oxymetazoline, Alpha 2B
O=C1/C(=C/c2c[nH]cn2)CSc2ccccc21 [Example B-5a, 3-(1H-imidazol-4(5)-ylmethylene)thiochroman-4-one] | 0.5
O=C1c2ccccc2SCC1Cc1c[nH]cn1 (stereo not drawn) [Example B-5b, 3-(1H-imidazol-4(5)-ylmethyl)thiochroman-4-one] | 0.5
O=C1/C(=C/c2c[nH]cn2)Cc2ccccc21 [Example B-7a, 2-(1-H-imidazol-4(5)-ylmethylene)indan-1-one] | 0.3
O=C1c2ccccc2CC1Cc1c[nH]cn1 (stereo not drawn) [Example B-7b, 2-(1H-imidazol-4(5)-ylmethyl)indan-1-one] | 0.3
c1ccc2c(c1)CC(Cc1c[nH]cn1)C2 [Example B-7c, 4(5)-indan-2-ylmethyl-1H-imidazole] | 0.9
Cc1ccc2c(c1)C(=O)C(Cc1c[nH]cn1)CC2 (stereo not drawn) [Example B-8a, 2-(1-H-imidazol-4(5)-ylmethyl)-7-methyl-3,4-dihydro-2H-naphthalen-1-one] | 0.4
Cc1ccc2c(c1)CC(Cc1c[nH]cn1)CC2.Cl (stereo not drawn) [Example B-8b, 4(5)-(7-methyl-1,2,3,4-tetrahydronaphthalen-2-ylmethyl)-1H-imidazole, hydrogen chloride salt] | 0.6
Cl.c1nc(CC2CCC3SCCC3C2)c[nH]1 (stereo not drawn) [Example B-9c, 5-(octahydrobenzo[b]thiophen-5-ylmethyl)-1H-imidazole, hydrochloride] | 0.3
CC1(C)CC(Cc2c[nH]cn2)Cc2ccccc21 (stereo not drawn) [Example B-10, 4(5)-(4,4-dimethyl-1,2,3,4-tetrahydronaphthalen-2-ylmethyl)-1H-imidazole] | 0.3
c1ccc2c(c1)CCCC(Cc1c[nH]cn1)C2 (stereo not drawn) [Example B-11a, 4(5)-(6,7,8,9-tetrahydro-5H-benzocyclohepten-6-ylmethyl)-1H-imidazole] | 0.9
O=C1/C(=C/c2c[nH]cn2)CCCc2ccccc21 [Example B-11b, 6-(1H-imidazol-4(5)-ylmethylene)-6,7,8,9-tetrahydrobenzocyclohepten-5-one] | 0.3
c1nc(Cc2ccoc2)c[nH]1 [Example C-6, 4(5)-furan-3-ylmethyl-1H-imidazole] | 0.67
c1ccc2oc(Cc3c[nH]cn3)cc2c1 [Example C-10, 4(5)-benzofuran-2-ylmethyl-1H-imidazole] | 0.48
CCc1ccc(Cc2c[nH]cn2)o1 [Example C-11, 4(5)-(5-ethylfuran-2-ylmethyl)-1H-imidazole] | 0.5
Brc1csc(Cc2c[nH]cn2)c1 [Example C-12, 4(5)-(4-bromothiophen-2-ylmethyl)-1H-imidazole] | 1.3
c1ccc(-c2csc(Cc3c[nH]cn3)c2)cc1 [Example C-13, 4(5)-(4-phenylthiophen-2-ylmethyl)-1H-imidazole] | 0.5
Cc1csc(Cc2c[nH]cn2)c1.Cl [Example C-14, 4(5)-(4-methylthiophen-2-ylmethyl)-1H-imidazole, hydrochloride salt] | 0.7
Cc1ccccc1C1C2CCC(C2)C1/N=C1/NCCO1 [Example D-2, oxazolidin-2-ylidene-(3-o-tolylbicyclo[2.2.1]hept-2-yl) amine] | 0.75
C1CO/C(=N\C2CC3CCC2C3)N1 [Example D-3, bicyclo[2.2.1]hept-2-yl oxazolidin-2-ylidene amine] | 0.4
c1nc(Cc2cc3c(s2)CCCC3)c[nH]1 [Example K-1, 4(5)-(4,5,6,7-tetrahydrobenzo[b]thiophen-2-ylmethyl)-1H-imidazole] | 0.53
CC(C)(C)c1ccc(Cc2c[nH]cn2)o1 [Example K-2, 4(5)-(5-tert-butylfuran-2-ylmethyl)-1H-imidazole] | 0.7
c1nc(Cc2cc3c(s2)SCCC3)c[nH]1 [Example K-3, 4(5)-(5,6-dihydro-4H-thieno[2,3-b]thiopyran-2-ylmethyl)-1H-imidazole] | 0.37
C1=C2CCCCC2CCC1Cc1c[nH]cn1 (stereo not drawn) [Example N-2, 4(5)-(2,3,4,4a,5,6,7,8-octahydronaphthalen-2-ylmethyl)-1H-imidazole] | 0.5
c1nc(CC2CCC3=C(CCCC3)C2)c[nH]1 (stereo not drawn) [Example N-3, 4(5)-(1,2,3,4,5,6,7,8-octahydronaphthalen-2-ylmethyl)-1H-imidazole, fumarate] | 0.75
